Experimental data from publication PMC5471912, “Integrated metabolome and transcriptome analysis of Magnolia champaca identifies biosynthetic pathways for floral volatile organic compounds” (BMC Genomics, 2017).

Target: T1, McTPS1 (Magnolia champaca, UniProt A0A1Y0BW36)
T1 construct: gene TPS1; full-length ORF (plastid transit peptide apparently kept), N-terminal 6His tag (pDEST17), E. coli BL21 pLysS, Ni-NTA purified
T1 sequence (A0A1Y0BW36 1-581): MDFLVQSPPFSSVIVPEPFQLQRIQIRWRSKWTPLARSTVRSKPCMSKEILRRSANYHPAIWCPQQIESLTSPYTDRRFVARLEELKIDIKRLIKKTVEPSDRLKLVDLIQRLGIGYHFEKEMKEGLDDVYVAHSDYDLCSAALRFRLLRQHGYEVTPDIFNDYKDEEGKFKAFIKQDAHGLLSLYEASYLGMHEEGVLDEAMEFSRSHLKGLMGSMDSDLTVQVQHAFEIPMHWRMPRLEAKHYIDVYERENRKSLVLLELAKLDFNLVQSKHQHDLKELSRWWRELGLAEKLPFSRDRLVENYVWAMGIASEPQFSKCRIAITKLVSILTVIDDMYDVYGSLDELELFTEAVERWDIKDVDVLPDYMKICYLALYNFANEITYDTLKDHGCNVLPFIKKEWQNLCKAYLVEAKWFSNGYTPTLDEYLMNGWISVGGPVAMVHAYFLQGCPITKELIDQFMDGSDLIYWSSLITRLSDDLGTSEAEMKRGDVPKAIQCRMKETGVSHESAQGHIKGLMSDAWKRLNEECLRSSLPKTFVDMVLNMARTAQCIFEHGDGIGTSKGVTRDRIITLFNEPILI
Experiment: in vitro TPS assay, chiral phase GC-MS
Format: biochemical
Conditions: 25 mM HEPES pH 7.4, 100 mM KCl, 7.5 mM MgCl2, 5 mM DTT (1X of the 2X buffer), 30 °C, 2 h

SMILES | in vitro TPS assay, chiral phase GC-MS (from GPP) | in vitro TPS assay, chiral phase GC-MS
C=C[C@](C)(O)CCC=C(C)C [(R)-linalool] | our in vitro assays identified McTPS1 as the (R)-linalool synthase | 
CC(C)=CCC/C(C)=C/COP(=O)(O)OP(=O)(O)O [geranyl diphosphate] |  | McTPS1 reacted with GPP to produce (R)-linalool, a monoterpene alcohol
